This note sets out measurements from patent US20250057426A1, “COMPUTER-IMPLEMENTED METHODS AND ASSOCIATED SYSTEMS FOR DETECTING MALIGNANCY” (The Trustees of the University of Pennsylvania, priority 2021, published 2025).

In this test the test system is pulmonary lesions. Description: Tumor-to-background ratio (TBR) during OTL38-based intraoperative molecular imaging (IMI)-guided lung resection. Format: in vivo, patients. Conditions: OTL38 0.025 mg/kg infused up to 24 h prior to surgery. How it is done:
Appropriate authorization was obtained from the University of Pennsylvania Perelman School of Medicine Institutional Review Board prior to data collection. Data was retrospectively analyzed from a prospectively collected database. Surgical procedures were performed by the surgeons at the Department of Thoracic Surgery at the Hospital of the University of Pennsylvania. A total of 279 patients were included in the study. All patients enrolled in the study presented with suspicious pulmonary nodules in conjunction with the recommendations from the Fleischner Society Guidelines for Pulmonary Nodules based on high-quality 1 mm slice thickness CT scanning. Based on institutional practice patterns, pre-operative tissue sampling and diagnosis was not mandatory. Selected patients underwent appropriate pre-operative clearance and metastatic disease work up prior to operative scheduling with video-assisted thoracoscopic surgical (VATS) lobectomy being the procedure of choice.
Analyzed patients underwent infusion of the study drug OTL38 (0.025 mg/kg) up to 24 h prior to surgery. OTL38 (C61H63N9Na4O17S4, MW: 1414.42) is a folate analog conjugated to the NIR dye, S0456. OTL38 excites at 774-776 nm and emits at 794-796 nm. […] The iridium system utilizes an excitation laser with a wavelength of 805 nm, with fluorescence detection based on a bandpass filter selective to light ranging from 825 to 850 nm. […]
Postoperatively, all the IMI images were uploaded to the deidentified secure database for analysis. Mean fluorescence intensity of the tumors was calculated from ImageJ (from National Institutes of Health) software with minimum 1000 pixels being included in the analysis. To minimize inter-observer bias, a protocol was established where the in situ and ex vivo TBRs were calculated by three blinded independent observers. Results were re-calculated by different observers if at least two blinded observer TBR measurements were not correlating (TBR values ±0.2 from each other). TBR results were then compared to final pathological diagnosis and analyzed for their correlation with in situ fluorescence. […]

Each structure is given as a SMILES string.

`CC1(C)C(/C=C/C2=C(Oc3ccc(C[C@H](NC(=O)c4ccc(NCc5cnc6nc(N)[nH]c(=O)c6n5)cc4)C(=O)[O-])cc3)C(=C/C=C3\N(CCCCS(=O)(=O)[O-])c4ccc(S(=O)(=O)[O-])cc4C3(C)C)/CCC2)=[N+](CCCCS(=O)(=O)[O-])c2ccc(S(=O)(=O)[O-])cc21.[H+].[H+].[H+].[H+]` [OTL38]: where the note is “entire cohort of 279 patients, Iridium NIR imaging, ImageJ”, the “In situ TBR, mean” value is reported as 2.84. Also, the “Ex vivo TBR bisected tumor, mean” value (entire cohort, bisected specimen, 0.025 mg/kg) was 4. Further, the “Ex vivo TBR (back table), mean” value (entire cohort, resected specimen) worked out at 3.09.
